We go through 18 compounds from patent publication US20050085457A1, “Therapeutic quinolone compounds with 5-ht-antagonistic properties” (priority 2001, published 2005).

Tested on in one data set: not given
Experiment: not given
Conditions: not given
For the compound `COc1cc(N2CCN(C)CC2)c2oc(C(=O)Nc3ccc(N4CCOCC4)cc3)cc(=O)c2c1` [Example 31, 6-Methoxy-8-(4-methyl-piperazin-1-yl)-4-oxo-4H-chromene-2-carboxylic acid (4-morpholin-4-yl-phenyl)-amide], the melting point was 234 to 236 °C. Still for that read-out and setting: the value for `CN1CCN(c2cccc3c2OC(C(=O)Nc2ccc(N4CCOCC4)cc2)CC3)CC1` (racemic) [Example 75, racemic-8-(4-Methyl-piperazin-1-yl)-chroman-2-carboxylic Acid (4-morpholin-4-yl-phenyl)-amide] was 215 to 216 °C; that for `CCS(=O)(=O)N1CCN(c2ccc(NC(=O)c3cc(=O)c4cc(F)cc(N5CCN(C)CC5)c4o3)cc2)CC1` [Example 71, 6-Fluoro-8-(4-methyl-piperazin-1-yl)-4-oxo-4H-chromene-2-carboxylic Acid [4-(4-ethane sulfonyl-piperazin-1-yl)-phenyl]-amide] was 233 to 234 °C. For `CN1CCN(c2cccc3c2OC(C(=O)Nc2ccc(N4CCOCC4)cc2)CC3=O)CC1` (single isomer, unassigned) [Example 79, 8-(4-Methyl-piperazin-1-yl)-4-oxo-chroman-2-carboxylic acid (4-morpholin-4-yl-phenyl)-amide (Faster Running Isomer)], the melting point was 216 °C (dec.). On the same count and under the same terms, with `COc1cc(N2CCN(C)CC2)c2oc(C(=O)Nc3ccc(N4CCN(C(=O)CCO)CC4)cc3)cc(=O)c2c1` [Example 68, 6-Methoxy-8-(4-methyl-piperazin-1-yl)-4-oxo-4H-chromene-2-carboxylic acid {4-[4-(3-hydroxy-propanoyl)-piperazin-1-yl]-phenyl}-amide] the figure was 195 to 197 °C; with `CN1CCN(c2cccc3c2OC(C(=O)Nc2ccc(N4CCOCC4)cc2)CC3)CC1` (single isomer, unassigned; (-)) [Example 77, (−)-8-(4-Methyl-piperazin-1-yl)-chroman-2-carboxylic acid (4-morpholin-4-yl-phenyl)-amide], 205.5 to 207 °C. With `CN1CCN(c2cc(F)cc3c(=O)cc(C(=O)Nc4ccc(N5CCN(C(=O)CCO)CC5)cc4)oc23)CC1` [Example 73, 6-Fluoro-8-(4-methyl-piperazin-1-yl)-4-oxo-4H-chromene-2-carboxylic acid {4-[4-(3-hydroxy-propanoyl)-piperazin-1-yl]-phenyl}-amide], the melting point is 195 to 199 °C.

As for `CN1CCN(c2cccc3c(=O)cc(C(=O)Nc4ccc(N5CCOCC5)cc4O)oc23)CC1` [Example 22, 8-(4-Methyl-piperazin-1-yl)-4-oxo-4H-chromene-2-carboxylic Acid (2-hydroxy-4-morpholin-4-yl-phenyl)-amide], the melting point lay within 248.4 to 249.6 °C. The same measure, in the same setting: the value for `CCNC(=O)N1CCN(c2ccc(NC(=O)c3cc(=O)c4cc(F)cc(N5CCN(C)CC5)c4o3)cc2)CC1` [Example 81, 4-[4-({1-[6-Fluoro-8-(4-methyl-piperazin-1-yl)-4-oxo-4H-chromen-2-yl]-methanoyl}-amino)-phenyl]-piperazine-1-carboxylic Acid Ethylamide] was 236 to 238 °C; that for `CN1CCN(c2cccc3c(=O)cc(C(=O)N(C)c4ccc(N5CCOCC5)cc4)oc23)CC1` [Example 25, 8-(4-Methylpiperazin-1-yl)-4-oxo-4H-chromene-2-carboxylic Acid methyl-(4-morpholin-4-yl-phenyl)amide] was 245 to 246.8 °C. Turning to `CN1CCN(c2cccc3c(=O)cc(-c4nc5ccc(N6CCOCC6)cc5o4)oc23)CC1` [Example 21, 8-(4-Methyl-piperazin-1-yl)-2-(6-morpholin-4-yl-benzooxazol-2-yl)-chromen-4-one], the melting point lay within 158.1 to 158.8 °C. Regarding `CN1CCN(c2cccc3c2OC(C(=O)Nc2ccc(N4CCOCC4)cc2)CC3=O)CC1` (racemic) [Example 78, racemic-8-(4-methyl-piperazin-1-yl)-4-oxo-chroman-2-carboxylic Acid (4-morpholin-4-yl-phenyl)-amide], the melting point was in the range of 215 to 216 °C. For the compound `CN1CCN(c2cccc3c(=O)cc(C(=O)Nc4ccc(N5CCOCC5)cc4)oc23)CC1` [Example 1, 8-(4-methyl-1-piperazinyl)-N-[4-(4-morpholinyl)phenyl]-4-oxo-4H-chromene-2-carboxamide], the melting point is 217 to 218 °C (dec.). The same measure, in the same setting: with `CN1CCN(c2cccc3c2OC(C(=O)Nc2ccc(N4CCOCC4)cc2)CC3)CC1` (single isomer, unassigned; (+)) [Example 76, (+)-8-(4-Methyl-piperazin-1-yl)-chroman-2-carboxylic Acid (4-morpholin-4-yl-phenyl)-amide] the figure was 206 to 207 °C. The same measure, in the same setting: the value for `CN1CCN(c2cccc3c2OC(C(=O)Nc2ccc(N4CCOCC4)cc2)CC3=O)CC1` (single isomer, unassigned) [Example 80, 8-(4-Methyl-piperazin-1-yl)-4-oxo-chroman-2-carboxylic Acid (4-morpholin-4-yl-phenyl)-amide (Slower Running Isomer)] was 215 °C (dec.).

Another data set has as its system Hartley guinea pigs. Description: learned helplessness test in guinea pigs. Type of data set: in vivo. To be noted: guinea pig. The source says: The utility of the compounds for example to treat depression may be shown via a learned helplessness test in guinea pigs, which is used extensively as correlative to antidepressant activity in humans. The learned helplessness test may be carried out as follows: Seventy male Hartley guinea pigs, each weighing about 350-425 gm are fed ad lib, and are housed under a 12-hour light/dark cycle. The procedure consists of two phases: The induction phase and the avoidance-training phase. In the induction phase, subjects are placed into standard shuttle cages (20 L×16 W×21 centimeters H) which are fitted with a grid floor. Electrical stimulation (1.25 mA, 10 sec duration) is delivered to the floor of the cage every 90-sec during 1 hour daily sessions. Subjects have no opportunity to escape or to avoid shocks. Induction is conducted for 2 consecutive days.
In avoidance training, testing is also conducted in the shuttle cages, except that the subjects are not returned to the same chamber in which induction had occurred. Additionally, all cages are fitted with a partition with an arch in the center of the cage, through which animals can pass between the left and right halves of the cage. The procedure employed is a standard shuttle avoidance procedure in which a compound, conditioned stimulus (a 10-sec presentation of a tone and turning on of a lamp on the side of the cage that the guinea pig was occupying) serves to indicate presentation of electrical current to the floor of the cage. Shock is presented for a 5 sec period, 5 sec after initiation of the conditioned stimulus. Entry into the opposite side of the shuttle cage via the arched partition prior to shock onset results in the end of the trial (avoidance response). If shock is delivered, entry into the opposite side of the cage results in termination of the shock and CS (escape). Reversal of learned helplessness in the induction subjects correlates to antidepressant activity of the test compound.
Avoidance training, 45-min in duration, is conducted on 2 consecutive days, beginning 48 hr after the final induction session. Seventy subjects are assigned to 1 of 6 groups of 11-12 animals. The groups are as follows: • 1) No induction group. The subjects are placed into the shuttle cages but are not given inescapable shock, the animals are subsequently trained in the avoidance procedure and the vehicle is administered; • 2) Induction vehicle control group; • 3) Imipramine 17.8 mg/kg; • 4) 0.3 mg/kg compounds; • 5) 1 mg/kg compounds; and • 6) 5 mg/kg compounds.
Groups 2-6 are given induction and avoidance training sessions. Injections are administered immediately following induction sessions and 1 hour prior to avoidance training sessions. […]
Take `COc1cc(N2CCN(C)CC2)c2oc(C(=O)Nc3ccc(N4CCOCC4)cc3)cc(=O)c2c1` [Example 31, 6-Methoxy-8-(4-methyl-piperazin-1-yl)-4-oxo-4H-chromene-2-carboxylic acid (4-morpholin-4-yl-phenyl)-amide]: the “activity in the learned helplessness assay for antidepressant/antianxiety activity” value is “demonstrate activity”.

For the compound `CCS(=O)(=O)N1CCN(c2ccc(NC(=O)c3cc(=O)c4cc(F)cc(N5CCN(C)CC5)c4o3)cc2)CC1` [Example 71, 6-Fluoro-8-(4-methyl-piperazin-1-yl)-4-oxo-4H-chromene-2-carboxylic Acid [4-(4-ethane sulfonyl-piperazin-1-yl)-phenyl]-amide], the “activity in the learned helplessness assay for antidepressant/antianxiety activity” value is reported as “demonstrate activity”. Same read-out and setting: the value for `CCC(=O)N1CCN(c2ccc(NC(=O)c3cc(=O)c4cc(F)cc(N5CCN(C)CC5)c4o3)cc2)CC1` [Example 72, 6-Fluoro-8-(4-methyl-piperazin-1-yl)-4-oxo-4H-chromene-2-carboxylic acid [4-(4-propionyl-piperazin-1-yl)-phenyl]-amide] was “demonstrate activity”.

Regarding `CCC(=O)N1CCN(c2ccc(NC(=O)c3cc(=O)c4cc(OC)cc(N5CCN(C)CC5)c4o3)cc2)CC1` [Example 44, 6-Methoxy-8-(4-methyl-piperazin-1-yl)-4-oxo-4H-chromene-2-carboxylic Acid [4-(4-propionyl-piperazin-1-yl)-phenyl]-amide], the “activity in the learned helplessness assay for antidepressant/antianxiety activity” value is on record as “demonstrate activity”.

Another data set concerns the target 5-HT1B and 5HT1D receptors.
Experiment: not given
To be noted: guinea pig cortex membranes; "may result in a measurement of"; assay of Roberts et al.; read-out: Kd of the radioligand (saturation studies); cited from earlier work.
As for `COc1ccc(NC(=O)c2ccc(-c3ccncc3)c(C)c2)cc1N1CCN(C)CC1` [[^3H]-GR125743], the Kd is 0.046 ± 0.004 nM.
